Measured values published in patent US8143276B2, “4-thio substituted quinoline and naphthyridine compounds” (XTL Biopharmaceuticals Ltd., priority 2007, dated 2012).

Columns and labels:
[1] = test system: HCV RNA; experiment: HCV Replicon RNA Assay (Taqman); assay type: cell-based, Hepatitis C virus; details: Huh-Luc-Neo cells, compound re-added at 24 h, HCV RNA by quantitative PCR; read-out: Replicon Inhibition*, Taqman
Description: (§1) Expression of HCV IRES driven luciferase reporter activity and HCV RNA is measured to obtain indirect and direct measures of replication of HCV RNA respectively. Inhibitors of HCV replication and/or proliferation are determined by initially identifying molecules that inhibit expression of the HCV IRES driven luciferase reporter in this HCV Replicon Luciferase Assay. Cell viability assays and control cell based luciferase assays are then run on hits identified in the HCV Replicon Luciferase Assay to eliminate cytoxic compounds and non-specific compounds which act by inhibiting the luciferase enzyme.
(§2) Day 0, Cell Seeding and Compound Treatment: Huh-Luc-Neo Cells are seeded at 25,000/well in an opaque-walled 96 plate with Growth Medium (DMEM phenol red free+PS+2 mM glutamine; 100 μl/well). The compounds to be tested are added to the experimental wells (10 μl/well at 10× assay concentration) and the cells are then incubated (5% CO2, 37° C.).
Day 1, Media Change and Compound Treatment: 24 hours after the initial compound treatment the cell culture media is aspirated from the wells and fresh Growth Medium is added (DMEM phenol red free+PS+2 mM glutamine; 100 μl/well). The compounds to be tested are then added to the appropriate experimental wells (10 μl/well at 10× assay concentration) and the cells are then incubated (5% CO2, 37° C.) for an additional 24 hrs.
Day 2, RNA Isolation and cDNA Synthesis: The cells are washed with 1× Phosphate Buffered Saline (PBS) once.
Day 3, Quantitative PCR Based Measurement of HCV RNA (Taqman Assay): Quantitative PCR analysis to measure HCV RNA expression from cDNA synthesized on Day 2 is performed using the ABI 9700 HT Sequence Detection System (Applied Biosystems) as previously described (Lohman et al, Science 285, 110-113, 1999). The data is analyzed and IC50s are determined using GraphPad Prism 4 software. Hits validated in the Replicon RNA Assay have IC50s<8.0 μM and show <30% inhibition of Cell Viability at a compound concentration of 50 μM (Cell Titer Glow Assay, cell viability assay conditions identical to HCV Replicon RNA Assay conditions).

[2] = test system: HCV Replicon; experiment: HCV Replicon Luciferase Assay; assay type: cell-based, Hepatitis C virus; details: Huh-Luc-Neo cells, 48 h incubation, luciferase reporter; read-out: Replicon Inhibition*, Luciferase
Description: The identification of inhibitors of HCV replication and/or proliferation has been facilitated by the development of a cell-based system to study HCV replication. Inhibition of HCV replication may be performed using the HCV Replicon Assay developed in the laboratories of Bartenschlager (Lohman et al, Science 285, 110-113, 1999) and Rice (Blight et al, Science 290, 1972-1974, 2000). The assay is performed using the Huh-Luc-Neo cell line (Lohman et al, Science 285, 110-113, 1999). Huh-Luc-Neo cells are a human hepatoma cell line (Huh-7) stably expressing a bi-cistronic subgenomic replicon containing the HCV IRES in which the structural proteins of HCV have been deleted and replaced by a construct containing sequences coding for the firefly luciferase reporter gene, the neomycin selectable marker and the EMCV IRES to direct expression of a truncated HCV genome expressing the […] NS3, NS4A, NS4B, NS5A, and NS5B. HCV targets through which inhibitors could act to inhibit replication include the NS3 protease, the helicase/ATPase, NS5A, the NS5B-RNA dependent RNA polymerase, and the HCV IRES.
as §1
as §2, with “C.) for 48 h.” for “C.).”
Day 2, Reagent Preparation and Luciferase Assay: The Bright-Glo Luciferase Assay Buffer (Promega) is thawed and equilibrated to room temperature prior to use. The lyophilized Bright-Glo Luciferase Assay Substrate is equilibrated to room temperature prior to use. 10 ml of Bright-Glo Luciferase Assay Buffer is transferred to 1 vial of Bright-Glo Luciferase Assay Substrate bottle and mixed by gently with a Vortex. 100 μl of Bright-Glo Luciferase Assay reagent (Bright-Glo Luciferase Assay Buffer+Bright-Glo Luciferase Assay Substrate Mixture) is added to each well. The well contents are mixed for 5 min. on an orbital shaker at room temperature to induce cell lysis and the luminescence is then measured using a luminometer. The data is analyzed and IC50s are determined using GraphPad Prism 4 software. Hits validated in the Replicon Luciferase assay have IC50s<8.0 μM and show <30% inhibition of Cell Viability at a compound concentration of 100 μM (Cell Titer Glow Assay, cell viability assay conditions identical to HCV Replicon Luciferase Assay conditions).

[3] = test system: Huh-Luc-Neo Cells; experiment: CellTiter-Glo Cell Viability Assay; assay type: cell-based, human; details: 48 h, read-out: Cytotoxicity*
Description: as §2, with “ul/well).” for “μl/well).”, “tested for inhibition of cell viability” for “tested”, “C.) for 48 h.” for “C.).”
Day 2, Reagent Preparation and Assay: The CellTiter-Glo Buffer is thawed and equilibrated to room temperature prior to use. The lyophilized CellTiter-Glo Substrate is equilibrated to room temperature prior to use. 10 ml of CellTiter-Glo Buffer is transferred to 1 vial of CellTiter-Glo Substrate and mixed by gently with a Vortex. 100 μl of CellTiter-Glo Assay reagent (CellTiter-Glo Buffer+CellTiter-Glo Substrate Mixture) is added to each well. The well contents are mixed for 5 min. on an orbital shaker at room temperature to induce cell lysis and the luminescence is then measured using a luminometer.

With `Cn1c(=O)cc(Sc2ccccc2F)c2ccccc21` [compound 008] the IC50 [1] was 1 to 10 µM, the IC50 [2] was 1 to 10 µM and the IC50 [3] was greater than 100 µM.
